{"source": "the supplement of paper PMC10307832", "test_in_all_cases": "relative viability (nuclei count vs DMSO), 5 days (fraction); higher = more cells survive", "key": {"[1]": {"compound": "CC1CC(=O)N(C2=CN=C(N=C2N1C3CCCC3)NC4=C(C=C(C=C4)C(=O)NC5CCN(CC5)C)OC)C [NPK76-II-72-1] + CC(=O)Nc1cccc(-n2c(=O)n(C3CC3)c(=O)c3c(Nc4ccc(I)cc4F)n(C)c(=O)c(C)c32)c1 [Trametinib] (partner 0.02 µM)", "in_short": "(§1)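 Lung cancer cell lines in 1536-well plates got either a single drug or a fixed anchor-drug dose together with five library-drug doses (not always all listed) in √10 steps, by pin tool, on the day after seeding. Nuclei were counted after 5 days, and relative viability is the treated-to-vehicle ratio of nuclei counts. Values are medians of duplicate plates.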"}, "[2]": {"compound": "CC1CC(=O)N(C2=CN=C(N=C2N1C3CCCC3)NC4=C(C=C(C=C4)C(=O)NC5CCN(CC5)C)OC)C [NPK76-II-72-1] + CC(C)C[C@H](NC(=O)[C@H](Cc1ccccc1)NC(=O)c1cnccn1)B(O)O [Bortezomib] (partner 0.002 µM)", "in_short": "as §1"}, "[3]": {"compound": "CC[C@@H]1C(=O)N(C)c2cnc(Nc3ccc(C(=O)NC4CCN(C)CC4)cc3OC)nc2N1C1CCCC1 [BI-2536] + CC1(C)CCC(c2ccc(Cl)cc2)=C(CN2CCN(c3ccc(C(=O)NS(=O)(=O)c4ccc(N[C@H](CCN5CCOCC5)CSc5ccccc5)c(S(=O)(=O)C(F)(F)F)c4)cc3)CC2)C1 [Navitoclax] (partner 0.5 µM)", "in_short": "as §1"}, "[4]": {"compound": "CC[C@@H]1C(=O)N(C)c2cnc(Nc3ccc(C(=O)NC4CCN(C)CC4)cc3OC)nc2N1C1CCCC1 [BI-2536] + Cc1cc(Nc2cc(N3CCN(C)CC3)nc(Sc3ccc(NC(=O)C4CC4)cc3)n2)n[nH]1 [Tozasertib] (partner 0.1 µM)", "in_short": "as §1"}}, "data": [{"cell line": "UMC-11", "values": [{"measurement": "relative viability", "setting": "[1]; first compound 0.01 µM", "value": 0.692}, {"measurement": "relative viability", "setting": "[1]; first compound 0.03162 µM", "value": 0.629}, {"measurement": "relative viability", "setting": "[1]; first compound 0.1 µM", "value": 0.75}, {"measurement": "relative viability", "setting": "[1]; first compound 0.3162 µM", "value": 0.484}, {"measurement": "relative viability", "setting": "[1]; first compound 1 µM", "value": 0.812}, {"measurement": "relative viability", "setting": "[2]; first compound 0.01 µM", "value": 0.743}, {"measurement": "relative viability", "setting": "[2]; first compound 0.03162 µM", "value": 0.605}, {"measurement": "relative viability", "setting": "[2]; first compound 0.1 µM", "value": 0.773}, {"measurement": "relative viability", "setting": "[2]; first compound 0.3162 µM", "value": 0.659}, {"measurement": "relative viability", "setting": "[2]; first compound 1 µM", "value": 0.788}, {"measurement": "relative viability", "setting": "[3]; first compound 0.01 µM", "value": 0.279}, {"measurement": "relative viability", "setting": "[3]; first compound 0.03162 µM", "value": 0.286}, {"measurement": "relative viability", "setting": "[3]; first compound 0.1 µM", "value": 0.166}, {"measurement": "relative viability", "setting": "[3]; first compound 0.3162 µM", "value": 0.136}, {"measurement": "relative viability", "setting": "[3]; first compound 1 µM", "value": 0.112}, {"measurement": "relative viability", "setting": "[4]; first compound 0.01 µM", "value": 0.184}, {"measurement": "relative viability", "setting": "[4]; first compound 0.03162 µM", "value": 0.203}, {"measurement": "relative viability", "setting": "[4]; first compound 0.1 µM", "value": 0.198}, {"measurement": "relative viability", "setting": "[4]; first compound 0.3162 µM", "value": 0.31}, {"measurement": "relative viability", "setting": "[4]; first compound 1 µM", "value": 0.361}]}]}
